Data as given in the supplement of paper PMC10307832.

Experiments:
Assay in all cases: relative viability (nuclei count vs DMSO), 5 days (fraction); higher = more cells survive
CUDC-101 + Trametinib = compound: C#Cc1cccc(Nc2ncnc3cc(OC)c(OCCCCCCC(=O)NO)cc23)c1 [CUDC-101] + CC(=O)Nc1cccc(-n2c(=O)n(C3CC3)c(=O)c3c(Nc4ccc(I)cc4F)n(C)c(=O)c(C)c32)c1 [Trametinib] (partner 0.02 µM)
In short: (§1)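 Relative viability divides the nuclei count in treated wells by that in vehicle wells. Lung cancer cell lines were seeded in 1536-well plates, dosed by pin tool the next day, and fixed and stained after 5 days in one step with final 0.05% Triton X-100, 1% formaldehyde and 1 ug/ml Hoechst. Dosing was a single drug or a fixed anchor-drug dose plus five library-drug doses (not always all listed) in √10 steps, and values are medians of duplicate plates imaged at 4×.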

Vandetanib + Dasatinib = compound: COc1cc2/c(=N/c3ccc(Br)cc3F)nc[nH]c2cc1OCC1CCN(C)CC1 [Vandetanib] + Cc1nc(Nc2ncc(C(=O)Nc3c(C)cccc3Cl)s2)cc(N2CCN(CCO)CC2)n1 [Dasatinib] (partner 0.075 µM)
In short: as §1

Vandetanib + OSI-027 = compound: COc1cc2/c(=N/c3ccc(Br)cc3F)nc[nH]c2cc1OCC1CCN(C)CC1 [Vandetanib] + COc1cccc2cc(-c3nc([C@H]4CC[C@H](C(=O)O)CC4)n4ncnc(N)c34)[nH]c12 [OSI-027] (partner 0.5 µM)
In short: as §1

CUDC-101 + Lapatinib = compound: C#Cc1cccc(Nc2ncnc3cc(OC)c(OCCCCCCC(=O)NO)cc23)c1 [CUDC-101] + CS(=O)(=O)CCNCc1ccc(-c2ccc3ncnc(Nc4ccc(OCc5cccc(F)c5)c(Cl)c4)c3c2)o1 [Lapatinib] (partner 2 µM)
In short: as §1

Row | Cell Line | relative viability (CUDC-101 + Trametinib; first compound 0.01 µM) | relative viability (CUDC-101 + Trametinib; first compound 0.03162 µM) | relative viability (CUDC-101 + Trametinib; first compound 0.1 µM) | relative viability (CUDC-101 + Trametinib; first compound 0.3162 µM) | relative viability (CUDC-101 + Trametinib; first compound 1 µM) | relative viability (Vandetanib + Dasatinib; first compound 0.02 µM) | relative viability (Vandetanib + Dasatinib; first compound 0.06325 µM) | relative viability (Vandetanib + Dasatinib; first compound 0.2 µM) | relative viability (Vandetanib + Dasatinib; first compound 0.6325 µM) | relative viability (Vandetanib + Dasatinib; first compound 2 µM) | relative viability (Vandetanib + OSI-027; first compound 0.02 µM) | relative viability (Vandetanib + OSI-027; first compound 0.06325 µM) | relative viability (Vandetanib + OSI-027; first compound 0.2 µM) | relative viability (Vandetanib + OSI-027; first compound 0.6325 µM) | relative viability (Vandetanib + OSI-027; first compound 2 µM) | relative viability (CUDC-101 + Lapatinib; first compound 0.01 µM) | relative viability (CUDC-101 + Lapatinib; first compound 0.03162 µM) | relative viability (CUDC-101 + Lapatinib; first compound 0.1 µM) | relative viability (CUDC-101 + Lapatinib; first compound 0.3162 µM) | relative viability (CUDC-101 + Lapatinib; first compound 1 µM)
1 | NCI-H522 | 0.605 | 0.747 | 0.893 | 0.651 | 0.642 | 0.849 | 0.724 | 0.885 | 0.808 | 0.821 | 0.77 | 0.727 | 0.772 | 0.674 | 0.61 | – | – | – | – | –
2 | NCI-H1666 | 0.842 | 0.931 | 0.818 | 0.911 | 0.831 | 0.767 | 0.723 | 0.801 | 0.769 | 0.779 | 0.858 | 0.765 | 0.836 | 0.788 | 0.751 | 0.64 | 0.692 | 0.583 | 0.664 | 0.38
3 | LC-2-ad | 0.929 | 0.913 | 0.912 | 0.823 | 0.773 | 0.574 | 0.471 | 0.49 | 0.317 | 0.211 | 0.848 | 0.761 | 0.777 | 0.675 | 0.446 | 0.984 | 1.02 | 1.06 | 0.863 | 0.198
4 | NCI-H2023 | 0.615 | 0.542 | 0.578 | 0.551 | 0.428 | 0.584 | 0.563 | 0.514 | 0.542 | 0.59 | 0.375 | 0.34 | 0.429 | 0.37 | 0.41 | 0.991 | 0.813 | 1.04 | 0.936 | 0.402
5 | SK-LU-1 | 0.475 | 0.439 | 0.551 | 0.663 | 0.456 | 0.195 | 0.151 | 0.184 | 0.18 | 0.173 | 0.332 | 0.199 | 0.37 | 0.348 | 0.301 | 1.01 | 0.922 | 0.712 | 0.844 | 0.446
6 | LCLC-97TM1 | 0.175 | 0.193 | 0.223 | 0.227 | 0.164 | 0.801 | 0.848 | 0.807 | 0.865 | 0.786 | 0.669 | 0.324 | 0.514 | 0.394 | 0.481 | 0.905 | 0.766 | 1.13 | 1.01 | 0.807
7 | NCI-H1915 | 0.308 | 0.287 | 0.305 | 0.314 | 0.273 | 0.278 | 0.279 | 0.304 | 0.313 | 0.312 | 0.599 | 0.575 | 0.616 | 0.648 | 0.569 | 1.02 | 1.04 | 0.977 | 0.911 | 0.837
8 | ABC-1 | – | – | – | – | – | 0.423 | 0.547 | 0.605 | 0.614 | 0.367 | 0.43 | 0.464 | 0.488 | 0.479 | 0.254 | 1.06 | 1.05 | 1.21 | – | 1.26
9 | NCI-H1563 | – | – | – | – | – | 0.44 | 0.443 | 0.462 | 0.472 | 0.454 | 0.79 | 0.8 | 0.743 | 0.76 | 0.734 | 0.846 | 0.814 | 1.17 | 1.13 | 0.877
10 | LCLC-103H | 0.666 | 0.66 | 0.662 | 0.707 | 0.681 | 0.511 | 0.422 | 0.43 | 0.424 | 0.47 | 0.428 | 0.44 | 0.438 | 0.423 | 0.448 | – | – | – | – | –
11 | NCI-H1623 | – | – | – | – | – | 0.489 | 0.576 | 0.502 | 0.507 | 0.404 | 0.479 | 0.439 | 0.454 | 0.398 | 0.455 | – | – | – | – | –
12 | NCI-H2342 | 0.789 | 0.947 | 0.814 | 0.819 | 0.777 | 0.339 | 0.335 | 0.321 | 0.315 | 0.361 | 0.616 | 0.597 | 0.644 | 0.669 | 0.591 | – | – | – | – | –
13 | EBC-1 | – | – | – | – | – | – | – | – | – | – | – | – | – | – | – | 0.224 | 0.212 | 0.214 | 0.215 | 0.196
14 | NCI-H441 | 0.639 | 0.439 | 0.371 | 0.65 | 0.41 | 0.552 | 0.54 | 0.617 | 0.598 | 0.629 | 0.551 | 0.619 | 0.713 | 0.643 | 0.566 | – | – | – | – | –
15 | ChaGo-K-1 | 0.958 | 0.898 | 0.909 | 0.87 | 0.784 | 0.581 | 0.63 | 0.269 | 0.584 | 0.607 | 0.532 | 0.54 | 0.515 | 0.602 | 0.591 | – | – | – | – | –
16 | NCI-H1299 | – | – | – | – | – | – | – | – | – | – | – | – | – | – | – | 0.97 | 0.917 | 0.883 | 0.973 | 0.857
17 | Calu-6 | – | – | – | – | – | – | – | – | – | – | – | – | – | – | – | 1.08 | 1.12 | 1.09 | 0.791 | 0.658
18 | NCI-H1703 | – | – | – | – | – | – | – | – | – | – | – | – | – | – | – | 1.31 | 1.03 | 1.07 | 1.18 | 0.765
19 | NCI-H1648 | 0.461 | 0.595 | 0.437 | 0.351 | 0.277 | – | – | – | – | – | 0.253 | 0.276 | 0.28 | 0.258 | 0.252 | – | – | – | – | –
